Like-named read-outs stand apart in the source and are kept apart here.
Tests used:
[1] = target: T1, adenosine receptor known as A2; assay: Guinea-pig Aortic Constriction Test; conditions: antagonism of adenosine relaxation of phenylephrine constricted guinea-pig aortic ring; read-out: pA2 (converted)
T1 construct: guinea pig thoracic aorta (from Dunkin Hartley strain, 250-400 g males); from tissue; host or cells: thoracic aortic rings, Dunkin Hartley guinea pig
Experimental: (b) Guinea-pig Aortic Constriction Test
The aortic ring preparation is obtained as follows: Sections (3-5 mm) of guinea pig thoracic aorta (from Dunkin Hartley strain, 250-400 g males) are mounted in organ baths containing oxygenated Krebs solution (95% O2 : 5% CO2) at 37° C. [The nucleoside transport inhibitor, dipyridamole (10 μM) is present in the Krebs solution]. The isometric tension development is recorded and the tissue placed under a resting tension of 1 g and allowed to equilibrate for 1 hour. The aortic ring preparation is then sensitised to 10^-5 M phenylephrine. Erythro-9-(2-hydroxy-3-nonyl)adenine (EHNA) (10 μM) is added to the preparation and after 10 minutes the tissue is constricted to approximately 50% maximum by adding 3×10^-6 M phenylephrine. Adenosine is next added cumulatively (10^-7 M to 10^-3 M) and the evoked relaxation is measured. After washout for 20 minutes, a 10^5 M solution of the test compound in DMSO (maximum 1% by volume) diluted with Krebs solution is added and left to equilibrate for 30 minutes. Twenty minutes into the equilibration period further EHNA (10 μM) is added to the preparation and 10 minutes later phenylephrine (3×10^-6 M) is introduced to produce constrictive tone again. A repeat dose response curve to adenosine is then carried out followed by washout.
Significant antagonist activity in this assay is indicated by a DR of >2.

[2] = target: T2, adenosine receptor known as A1 (Cavia porcellus, UniProt P47745); assay: Guinea-pig Atrial Bradycardic Test; conditions: antagonism of bradycardic effect of 2-chloroadenosine, beating guinea-pig atrial pair; read-out: pA2 (converted)
T2 construct: Atrial pairs are obtained from guinea-pigs (Dunkin Hartley strain, 250-400 g males); from tissue; host or cells: spontaneously beating atrial pairs, Dunkin Hartley guinea pig
T2 sequence (P47745 1-326): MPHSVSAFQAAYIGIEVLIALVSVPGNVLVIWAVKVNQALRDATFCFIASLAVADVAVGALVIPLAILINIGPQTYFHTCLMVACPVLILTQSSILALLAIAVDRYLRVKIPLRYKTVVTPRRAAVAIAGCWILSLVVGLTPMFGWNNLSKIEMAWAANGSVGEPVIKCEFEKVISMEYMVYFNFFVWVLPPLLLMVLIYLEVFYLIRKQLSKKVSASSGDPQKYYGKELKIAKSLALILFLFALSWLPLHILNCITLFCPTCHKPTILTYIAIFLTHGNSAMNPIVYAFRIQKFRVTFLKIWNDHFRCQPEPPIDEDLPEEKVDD
Experimental: (c) Guinea-pig Atrial Bradycardic Test
The atrial pair preparation may be obtained as follows: Atrial pairs are obtained from guinea-pigs (Dunkin Hartley strain, 250-400 g males) and mounted in organ baths containing oxygenated Krebs buffer solution (95% O2; 5% CO2) at 37° C. The spontaneously beating atria are then placed under a resting tension of 1 g and allowed to equilibrate for 50 minutes with continuous overflow. Overflow is then stopped and adenosine deaminase (1 Unit/ml) added to prevent the accumulation of endogenously produced adenosine. After equilibration for 15 minutes, a cumulative dose response curve to the adenosine mimetic, 2-chloroadenosine(10^-8 M to 10^-4 M) is administered to produce a maximal slowing of atrial rate. After washout during 30 minutes, adenosine deaminase is readministered to the bath which is allowed to equilibrate for 15 minutes. A 10^-5 M solution of the test compound in DMSO is then added to the bath which is left to incubate for 30 minutes. Any effect on the beating rate due to the test compound is noted before the dose response curve to 2-chloroadenosine is repeated. Compounds which are adenosine antagonists attenuate the 2-chloroadenosine response.
Test compounds are assessed by comparing dose response curves to 2-chloroadenosine alone with those obtained in the presence of the compound. […]

[3] = system: fall in diastolic blood pressure produced by 2-chloroadenosine; assay: Anaesthetised cat blood pressure Test; assay type: in vivo; conditions: i.v., Schild plot, 2-chloroadenosine 30 mm Hg fall in diastolic blood pressure
Experimental: (d) Anaesthetised cat blood pressure Test This test assesses the ability of a test compound to antagonise the fall in diastolic blood pressure produced by administration of the adenosine mimetic, 2-chloroadenosine. […] The blood gas status and pH are determined, and are maintained within physiological limits, before administration of 2-chloroadenosine. […] A solution of the test compound in a mixture of 50% v/v polyethylene glycol (PEG) 400 and 0.1M sodium hydroxide is then administered i.v. and after 15 minutes the DRC to 2-chloroadenosine is determined. This procedure is repeated twice with blood gases and pH being monitored and maintained within physiological limits between each DRC. […] From this plot a KB value is determined.

[4] = system: adenosine induced decrease in blood pressure; assay: Conscious cat oral modification of Test (d); assay type: in vivo; conditions: conscious cats, at several times the minimum effective dose
Source text: The above Test (d) may conveniently be modified to allow evaluation of orally administered test compounds by administering the test compound to conscious cats with indwelling arterial and venous catheters and measuring the effect in preventing an adenosine induced decrease in blood pressure.

[5] = system: vasodilatation response during twitch contraction of skeletal muscle; assay: Anaesthetised cat exercise hyperaemia test; assay type: in vivo; conditions: Felis catus, iv, 20 min, hind limb contraction at 3 Hz for 20 minutes, read-out: dose producing significant inhibition of vasodilatation during exercise
Experimental: (f) Anaesthetised cat exercise hyperaemia test
This test involves assessment of the effect of a test compound to antagonise the vasodilatation response which occurs during twitch contraction of skeletal muscle. The vasodilation is mediated partly by the release of endogenous adenosine from the contracting skeletal muscle.
Cats (2.4-3.6 kg) are anaesthetised with sodium pentobarbitone (50 mg.kg^-1 ip). The following blood vessels are catheterized: left jugular vein (for infusion of anaesthetic, at approximately […] as a 6 mg.ml^-1 solution in isotonic saline), right external jugular vein (for administration of drugs and test compounds), right common carotid artery (for measurement of systemic arterial blood pressure and pulse rate) and right brachial artery (for withdrawal of blood).
Blood flow to the left hind limb is measured with an electromagnetic flow probe around the left external iliac artery. The whole of the left hind limb is made to contract at 3 Hz for 20 minutes duration by stimulating the sciatic and femoral nerves. Active tension produced by the extensor digitorum longus and peroneous longus muscles is measured isometrically with a force transducer. […] Test compounds are assessed for their ability to reduce the vasodilatation during skeletal muscle contraction. […]

A2 Adenosine receptor = target: T3, A2 Adenosine receptor (Rattus norvegicus, UniProt P30543); assay: A2 Adenosine receptor affinity test ([3H]-NECA displacement, PC12 membranes); assay type: binding
T3 construct: membrane preparations derived from the rat phaeochromocytoma cell line PC 12; endogenous in cells; host or cells: PC 12 (rat phaeochromocytoma; cell line available from the Beatson Institute, Glasgow)
Experimental: The separated cells are then suspended in hypotonic solution (distilled water), allowed to stand on ice for 30 minutes and are then carefully homogenized using a standard high-speed homogeniser with periodic ice-cooling to obtain a fine suspension. […] A1280). […] After 20 minutes, the reaction is terminated by dilution with ice-cold buffer and transfer onto ice. The material obtained containing the cell membranes is recovered by centrifugation and washed by resuspension in buffer and recentrifugation. The pellet produced is then resuspended in ice-cold buffer using a hand-driven homogenizer. The resultant membrane suspension is frozen and stored under liquid nitrogen until required. […] After incubation, the samples are rapidly filtered over glass-fibre mats and the filter mats are washed to remove non-receptor-bound radioligand. Receptor-bound radioligand entrapped on the filter mats is then determined by liquid scintillation counting. Filtration and washing are carried out using a conventional vacuum filtration cell harvester. The specific binding (defined as the difference between the total binding and the non-specific binding) in the presence of the particular test compound is determined and compared with the control value.

[6] = system: actions of adenosine in lowering heart rate and increasing vasodilation (hind-limb perfusion pressure); assay: Anaesthetised dog Test; assay type: in vivo; conditions: Schild plot, antagonism of vasodilator response to adenosine
Experimental: (e) Anaesthetised dog Test
This test involves the assessment of the effects of a test compound on antagonising the actions of adenosine in lowering heart rate and increasing vasodilation (as measured by a fall in hind-limb perfusion pressure).
Beagles (12-18 kg) are anaesthetised with sodium pentobarbitone (50 mg/kg, iv). […] Both vagi, the right femoral and sciatic nerves are ligated and severed. […] The right leg is tied just below the ankle. Xamoterol (1 mg/kg) is then administered to the animal to stabilise heart rate at a high level and nitrobenzylthioinosine (NBTI, 0.5 mg/kg) to inhibit the uptake of adenosine. The animal is sensitised to adenosine during the equilibration time following NBTI by carrying out a dose response curve (DRC). During this time any blood gas or pH imbalance is corrected. A control DRC is performed followed-d by up to three DRC's after cumulative administration of the test compound (as described in (d) above). […] Similarly, blood gases and pH are maintained within physiological limits throughout the evaluation.
From this plot a KB value is determined for antagonism of heart rate response and vasodilator response to adenosine.

T3 sequence (P30543 whole entry): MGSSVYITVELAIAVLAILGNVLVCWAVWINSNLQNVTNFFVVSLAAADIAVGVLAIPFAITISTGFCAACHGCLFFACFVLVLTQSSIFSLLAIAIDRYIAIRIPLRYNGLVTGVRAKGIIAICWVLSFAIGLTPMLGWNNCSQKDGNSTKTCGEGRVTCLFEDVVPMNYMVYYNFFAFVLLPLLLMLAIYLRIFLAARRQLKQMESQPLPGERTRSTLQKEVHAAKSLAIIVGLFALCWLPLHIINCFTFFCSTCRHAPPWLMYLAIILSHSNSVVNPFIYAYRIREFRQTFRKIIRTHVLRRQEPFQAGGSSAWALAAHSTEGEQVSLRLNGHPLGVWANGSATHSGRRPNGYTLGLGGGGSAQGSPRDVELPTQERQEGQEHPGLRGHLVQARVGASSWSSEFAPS
T1 sequence (P29275 whole entry): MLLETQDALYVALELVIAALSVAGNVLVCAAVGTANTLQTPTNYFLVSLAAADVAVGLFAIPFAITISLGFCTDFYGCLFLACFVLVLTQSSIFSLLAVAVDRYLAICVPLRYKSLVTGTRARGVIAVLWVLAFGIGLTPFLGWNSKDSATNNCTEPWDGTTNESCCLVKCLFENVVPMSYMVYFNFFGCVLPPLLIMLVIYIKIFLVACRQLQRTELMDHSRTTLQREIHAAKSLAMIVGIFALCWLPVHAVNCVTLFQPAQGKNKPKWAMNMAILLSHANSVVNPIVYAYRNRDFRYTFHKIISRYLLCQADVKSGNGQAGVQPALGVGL

IC50 (A2 Adenosine receptor; displacement of [3H]-NECA, rat PC 12 cell membranes, 30° C., 90 minutes) [nM] | Compound | Kb [1] [nM] | Kb [2] [nM] | KB [3] [µg/kg] | sign of overt toxicity [4] | minimal effective dose [5] [mg/kg] | IC50 (A2 Adenosine receptor) [nM] | KB [6] [µg/kg]
 | Nc1nc(Oc2ccccc2)nc2nc(-c3ccco3)nn12 [Example 1, 7-amino-2-(2-furyl)-5-phenoxy-[1,2,4]triazolo[1,5-a][1,3,5]triazine] | 39.8 | 631 | 30 | without any sign of overt toxicity | 0.1 to 1 | ~10 | 30
~3.16 | Nc1nc(Oc2ccccc2)nc2cc(-c3ccco3)nn12 [Example 119, 7-amino-2-(2-furyl)-5-phenoxy-pyrazolo[2,3-a][1,3,5]triazine] | 50.1 | 1000 | 700 |  |  |  | 1100
 | Cn1c(=O)c2[nH]cnc2n(C)c1=O [1,3-dimethylxanthine, reference compound] |  |  |  |  | 10 |  | 

Source: patent US5270311A, “[1,2,4]-Triazolo[1,5-a]and pyrazolo[2,3-a][1,3,5]triazine derivatives” (Imperial Chemical Industries PLC, priority 1990, dated 1993)
